Experiment: Pharmacokinetic study in rats after oral administration of the CP extract (UPLC–TQ-MS/MS of plasma)
Format: in vivo
Conditions: male, Sprague-Dawley, rat plasma, single oral gavage of CP extract 10.5 g/kg, n=6, mean ± SD; for Cmax: non-compartmental
Description: Plasma samples were thawed at room temperature before analysis. Then, 10 μl of IS solution (20 μg/ml) and 200 μl of methanol were added to the plasma sample (90 μl) in a 1.5 ml Eppendorf tube. The mixture was vortexed for 1 min and centrifuged at 12,000×g for 10 min at 4 °C to deproteinize. Thereafter, 2 μl of the supernatant was injected into the UPLC–TQ/MS system for analysis.
Six healthy male Sprague–Dawley rats were fasted for 12 h with free access to water prior to the experiment. The CP extract was administered to rats by oral gavage at a dose of 10.5 g/kg body weight. Blood samples of approximately 0.5 ml were collected at 15 and 30 min and at 1 h, 2 h, 3 h, 4 h, 6 h, 8 h, 10 h, 12 h, and 24 h in heparinized centrifuge tubes from the ophthalmic vein using a sterile capillary tube under anesthesia after oral administration of the CP extract. Following centrifugation at 4000×g for 10 min at 4 °C, plasma samples were transferred to polypropylene tubes and stored at − 80 °C until analysis.
The concentrations of six analytes in plasma at different time points were expressed as mean ± SD, which was calculated from the daily calibration curve. All the pharmacokinetic parameters were processed through non-compartmental analysis using the DAS 3.0 pharmacokinetic program. The maximum plasma concentration (Cmax) and time to reach the maximum concentrations (Tmax) were obtained directly from the curve.

| AUC(0-inf) | AUC(0-t) | Tmax | half-life | Cmax | Compound |
| --- | --- | --- | --- | --- | --- |
| 3580 ± 1200 ng·h/mL | 3310 ± 1060 ng·h/mL | 0.39 ± 0.13 h | 2.54 ± 0.53 h | 4170 ± 1890 ng/mL | O=C(/C=C/c1ccc(O)c(O)c1)O[C@@H]1C[C@](O)(C(=O)O)C[C@@H](O)[C@H]1O [Chlorogenic acid, chlorogenic acid] |
| 13500 ng·h/mL | 11000 ng·h/mL | 0.33 ± 0.13 h | 10 ± 3.31 h | 3710 ± 1590 ng/mL | O=C(O)[C@H]1O[C@@H](Oc2c(-c3ccc(O)c(O)c3)oc3cc(O)cc(O)c3c2=O)[C@H](O)[C@@H](O)[C@@H]1O [Quercetin-3-O-glucuronide, quercetin-3-O-glucuronide] |
| 91.7 ± 15.2 ng·h/mL | 79.8 ± 28.5 ng·h/mL | 0.46 ± 0.1 h | 11.7 ± 6.01 h | 28.6 ± 8.23 ng/mL | O=c1c(O)c(-c2ccc(O)c(O)c2)oc2cc(O)cc(O)c12 [Quercetin, quercetin] |
| 325 ± 104 ng·h/mL | 242 ± 77 ng·h/mL | 0.67 ± 0.26 h | 7.24 ± 1.63 h | 122 ± 49.9 ng/mL | O=c1c(O)c(-c2ccc(O)cc2)oc2cc(O)cc(O)c12 [Kaempferol, kaempferol] |
| 2470 ± 943 ng·h/mL | 2450 ± 952 ng·h/mL | 0.32 ± 0.12 h | 4.54 ± 1.38 h | 4330 ± 1610 ng/mL | O=C(/C=C/c1ccc(O)c(O)c1)O[C@@H]1C[C@@](O)(C(=O)O)C[C@@H](O)[C@@H]1O [Neochlorogenic acid, neochlorogenic acid] |

— paper PMC6685155, “Simultaneous UPLC–TQ-MS/MS determination of six active components in rat plasma: application in the pharmacokinetic study of Cyclocarya paliurus leaves” (Chinese Medicine, 2019)
